Structures are written as SMILES. Values after ≈ are worked out from the molar mass of the structure shown. Where two headings read alike, the source gives them in different places.

The record followed here is publication PMC6968641, “N-monoarylacetothioureas as potent urease inhibitors: synthesis, SAR, and biological evaluation” (Journal of Enzyme Inhibition and Medicinal Chemistry, 2019).

For one data set, the target named is T1, H. pylori urease (Helicobacter pylori, UniProt P69996).
T1 construct: endogenous in cells; host or cells: H. pylori ATCC 43504; sonicated, supernatant desalted on Sephadex G-25 (crude extract)
T1 sequence (P14916 whole entry): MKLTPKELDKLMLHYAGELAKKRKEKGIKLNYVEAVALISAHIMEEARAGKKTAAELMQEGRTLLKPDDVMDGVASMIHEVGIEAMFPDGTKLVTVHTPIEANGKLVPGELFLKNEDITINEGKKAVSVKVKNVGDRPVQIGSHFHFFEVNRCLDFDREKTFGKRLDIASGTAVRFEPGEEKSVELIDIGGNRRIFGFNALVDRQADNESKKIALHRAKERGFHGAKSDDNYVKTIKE
T1 sequence (P69996 whole entry): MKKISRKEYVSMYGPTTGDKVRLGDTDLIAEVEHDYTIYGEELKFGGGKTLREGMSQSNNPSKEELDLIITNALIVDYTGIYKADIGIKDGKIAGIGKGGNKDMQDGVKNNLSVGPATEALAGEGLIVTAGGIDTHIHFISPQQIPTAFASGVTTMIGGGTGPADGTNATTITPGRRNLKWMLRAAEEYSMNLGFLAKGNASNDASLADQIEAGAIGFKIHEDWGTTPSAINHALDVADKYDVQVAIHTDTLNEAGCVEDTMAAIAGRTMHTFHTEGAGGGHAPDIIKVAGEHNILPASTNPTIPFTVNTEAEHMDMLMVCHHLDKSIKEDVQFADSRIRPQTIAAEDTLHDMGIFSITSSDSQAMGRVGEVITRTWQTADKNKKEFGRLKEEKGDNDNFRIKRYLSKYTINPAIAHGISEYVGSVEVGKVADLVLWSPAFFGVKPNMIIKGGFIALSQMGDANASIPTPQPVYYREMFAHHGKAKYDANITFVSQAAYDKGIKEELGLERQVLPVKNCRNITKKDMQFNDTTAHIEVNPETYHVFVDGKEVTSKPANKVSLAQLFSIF
Put plainly: Urease inhibition, extracted H. pylori urease (indophenol method). The format is biochemical. The note with it: for IC50: IC50 Extracted urease, extracted H. pylori urease. Here is the method: For urease inhibition assays, 50 mL broth cultures (2.0 × 10^8 CFU/mL) were centrifuged (5000×g, 4 °C) to collect the bacteria, and after washing twice with phosphate-buffered saline (pH 7.4), the H. pylori precipitation was stored at –80 °C for 8 h, and then was returned to room temperature, and after addition of 3 mL of distilled water and protease inhibitors, sonication was performed for 60 s. Following centrifugation (15,000×g, 4 °C), the supernatant was desalted through Sephadex G-25 column (PD-10 columns, Amersham Pharmacia Biotech, Uppsala, Sweden). The resultant crude urease solution was added to an equal volume of glycerol and stored at 4 °C until use in the experiment.
Urease activity was determined in the 96-well assay plate by measuring ammonia production using the indophenol method as described by Weatherburn[20]. Briefly, to each well, 50 µL of urea (10 mM) in phosphate buffer solution was added in a mixture of 25 µL (10 U) of H. pylori urease and 25 µL of the test compound, which was incubated at 37 °C for 0.5 h. Fifty µL of phenol reagent (containing 127 mM phenol and 0.168 mM sodium nitroprusside) and 50 µL of alkali reagent (containing 125 mM NaOH and 0.168 mM NaOCl) were added in turn. The resulted mixture was incubated at 37 °C for another 0.5 h for colouration developing. The increasing absorbance was measured at 630 nm after 50 min using a microplate reader (Molecular Devices, San Jose, CA). Percentage inhibitions were calculated from the following formula (Equation (1)). Experiments were performed in triplicate and AHA was used as reference drug, and the IC50 value was determined as the concentration of compound that give 50% inhibition of maximal activity. As for the urease assay of intact cells, 25 µL (10 U) of H. pylori urease was replaced by 25 µL of cell suspension (4.0 × 10^7 CFU/mL).

A short description of data set [1]: Cytotoxicity MTT assay, P69. The format is cell-based. The note with it: human, P69 cells (normal prostate cell line), 25 μg/mL. As to the method: (§1) The stock solutions of the selected compounds (250 µg/mL, in PBS) were prepared in medium. L-02 cells and P69 cells were grown in medium (90% RPMI-1640 medium, 10% foetal bovine serum, 1% penicillin/streptomycin) and maintained at 37 °C in a humidified atmosphere containing 5% CO2, respectively. Cells were seeded in 96-well cell culture plates. On the day when seeding, the cells were exposed to 250 µg/mL of compounds and further cultured for 72 h at 37 °C. Cell proliferation was then determined using the thiazolyl blue tetrazolium bromide (MTT) assay.

A further data set has as its system H. pylori. Description: Minimum inhibitory concentration, broth microdilution (CLSI). The format is cell-based, Helicobacter pylori (ATCC 43504). The note with it: Helicobacter pylori. As to the method: H. pylori (ATCC 43504; […] The minimum inhibitory concentration (MIC) values were determined using the broth microdilution protocol according to the methods of the Clinical and Laboratory Standards Institute (CLSI)[21].

Data set [2] concerns the target T2, Jack bean urease (Canavalia ensiformis, UniProt P07374).
T2 construct: purchased
Description: Enzyme kinetic study (indophenol method). The format is biochemical. To be noted: for Type of inhibition: Jack bean urease; for Ki': dissociation constant of urease-urea-inhibitor complex. As to the method:
Based on the indophenol method, the velocity of ammonia production (V) was measured in the presence of concentration gradients of urea ([S]) for every specific concentration of selected compounds ([I]). Nonlinear fitting curves to data of V and [S] were used to determine the type of enzyme inhibition based on the general kinetics equation (Equation (1)). Subsequently, the resulted fitting constants ( Km/Vmax(1+[I]/Ki) or 1/Vmax(1+[I]/Ki′) ) and [I] were linearly fitted to give kinetic parameters Ki and Ki', respectively. The experimental assay was performed against a pure urease (Jack bean urease) for the consideration of precision. (1) V=Vmax[S]/Km(1+[I]/Ki)+(1+[I]/K^′i)[S]
Mazzei et al. confirmed that urease shared the mechanism of catalysis and inhibition regardless of the biological sources[27]^,[28]. For excluding the possible interference, a pure urease (Jack bean urease) was therefore used for kinetic assays. As an example, Figure 2 describes the preincubation-time dependence of urease inhibition by b19. The suppressed urease activity maintained at relatively constant values with the increasing preincubation time under different concentrations of b19, resulting in nearly equal IC50 values.
Similarly, kinetic parameters ( Ki and Ki' ) and inhibition types of other compounds were also determined and are shown in Table 3.

Data set [3] addresses T2, Jack bean urease. Put plainly: Ligand affinity by surface plasmon resonance (SPR). The format is binding. The note with it: for kon: pH 7.4; for koff: immobilised urease, PBS pH 7.4. As to the method:
The binding kinetics of selected compounds were assayed via surface plasmon resonance (SPR) using an OPEN SPR instrument (Nicoya Lifesciences, Kitchener, Canada). First, urease dissolved (50 µg/mL) in PBS buffer (1 mM KH2PO4, 155 mM NaCl, 3 mM Na2HPO4-12H2O, pH 7.4), was immobilised to a CM5 chip using a standard amine coupling procedure. Then, SPR measurements were carried out in PBS, and stock solutions were diluted in the same buffer. Data were collected with OpenSPR control software. Experiments were performed by monitoring the refractive index changes as a function of time under constant flow rate of 20 µL/min. The relative amount of inhibitor bound to the urease was determined by measuring the net increase in refractive index over time compared to control running buffer. There is an inline subtraction of reference surface during the run. This change is usually reported in response units (RU). Sensograms were processed and analysed using TraceDrawer software. The binding curves were fit to determine the equilibrium dissociation constant (KD).
In the present paper, the pure Jack bean urease from commercial was used for this assay because of non-availability of pure H. pylori urease. […] For efficient and tight ligand binding, the rate constant koff is of particular interest, because koff has a potential to differentiate indistinguishable compounds with similar affinities.

The nature of data set [4]: Cytotoxicity MTT assay, L-02. The format is cell-based. To be noted: human, L-02 cells (normal hepatic cell line), 25 μg/mL. As to the method: as §1
Data set [5] deals with T3, urease in intact H. pylori cell (Helicobacter pylori, UniProt P69996).
T3 construct: H. pylori urease was replaced by 25 µL of cell suspension (4.0 × 10^7 CFU/mL); endogenous in cells; host or cells: intact H. pylori ATCC 43504 cells
T3 sequence (P69996 whole entry): as above
T3 sequence (P14916 whole entry, further chain): as the sequence (P14916 whole entry) above
Description: Urease inhibition in intact H. pylori cell (indophenol method). The format is cell-based.

T2 sequence (P07374 whole entry, looked up): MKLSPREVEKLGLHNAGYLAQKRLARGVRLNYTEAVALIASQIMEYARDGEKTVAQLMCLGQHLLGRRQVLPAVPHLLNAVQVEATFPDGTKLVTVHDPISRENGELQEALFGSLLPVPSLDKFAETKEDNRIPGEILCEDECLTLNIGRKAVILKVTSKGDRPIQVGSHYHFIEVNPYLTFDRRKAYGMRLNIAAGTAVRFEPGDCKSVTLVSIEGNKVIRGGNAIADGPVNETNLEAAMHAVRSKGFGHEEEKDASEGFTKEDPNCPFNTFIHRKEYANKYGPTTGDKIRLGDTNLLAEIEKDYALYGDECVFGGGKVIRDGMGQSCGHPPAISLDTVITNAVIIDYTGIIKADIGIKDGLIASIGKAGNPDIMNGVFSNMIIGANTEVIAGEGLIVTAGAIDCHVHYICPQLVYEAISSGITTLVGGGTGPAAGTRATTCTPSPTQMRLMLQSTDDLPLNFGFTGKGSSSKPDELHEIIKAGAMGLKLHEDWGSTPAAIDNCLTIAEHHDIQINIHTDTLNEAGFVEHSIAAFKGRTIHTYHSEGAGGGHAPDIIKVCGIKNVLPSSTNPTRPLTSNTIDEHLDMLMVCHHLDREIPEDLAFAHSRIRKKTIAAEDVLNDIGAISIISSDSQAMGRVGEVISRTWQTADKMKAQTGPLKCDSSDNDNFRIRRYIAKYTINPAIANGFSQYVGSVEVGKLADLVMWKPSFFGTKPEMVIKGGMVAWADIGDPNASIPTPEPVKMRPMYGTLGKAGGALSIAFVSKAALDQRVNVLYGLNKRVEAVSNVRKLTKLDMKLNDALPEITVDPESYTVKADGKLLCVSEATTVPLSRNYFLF

`Cc1ccc(CC(=O)NC(N)=S)cc1` [b16]: the melting point fell in the range of 171.2 to 172.5 °C. The compound also displayed an IC50 against H. pylori urease of 5200 ± 320 nM. Besides, the viability at 72 h, 25 µg/mL in data set [1] came to 89.9%. Moreover, the MIC in the data set on H. pylori (pH=4.0, read-out: MIC pH=4.0) is 2 µM (≈ 0.417 µg/mL). Moreover, the MIC in the data set with H. pylori (pH=7.0, read-out: MIC pH=7.0) was 64 µM (≈ 13.3 µg/mL). Besides, at Jack bean urease [2], the Ki turned out to be 1280 nM, the Type of inhibition entry was “Reversible” and the “Ki'” value amounted to 2840 nM. At Jack bean urease [3], this compound displayed a Kd of 162 ± 3.8 nM and a kon of 501000 M⁻¹ s⁻¹. Besides, on Jack bean urease [3] (pH 7.4, SPR), the koff stood at 0.081 s⁻¹. Also, the viability at 72 h, 25 µg/mL in data set [4] stood at 114%. The same compound registered an IC50 in data set [5] of 35700 ± 1700 nM.

For the compound `NC(=S)NC(=O)Cc1ccc(Cl)cc1` [b19], the melting point is 184.1 to 186.6 °C. This compound displayed an IC50 against H. pylori urease of 160 ± 50 nM. Besides, the “fold more potent than AHA, extracted urease” value at H. pylori urease (ratio of IC50 values vs AHA) is 170 fold. In addition, in data set [1], the viability at 72 h, 25 µg/mL was greater than 93%. In addition, the MIC in the data set on H. pylori (pH=4.0, read-out: MIC pH=4.0) stood at 0.5 µM (≈ 0.114 µg/mL). The MIC with H. pylori (pH=7.0, read-out: MIC pH=7.0) was 32 µM (≈ 7.32 µg/mL). On Jack bean urease [2], the Ki stood at 40 nM, the Type of inhibition entry is listed as “Reversible” and the “Ki'” value was found to be 160 nM. Besides, the “preincubation-time dependence of urease inhibition” value on Jack bean urease [2] (different preincubation times and concentrations) is recorded as “time-independent”. Also, the inhibition mechanism entry against Jack bean urease [2] (from Ki and Ki') was “mixed competitive”. At Jack bean urease [3], this compound had a Kd of 4.5 ± 0.16 nM and a kon of 3.82e+06 M⁻¹ s⁻¹. For the same compound, on Jack bean urease [3] (SPR), the koff is listed as 1.73 × 10^–3 ± 2.57 × 10^–5 s^–1. On Jack bean urease [3] (pH 7.4, SPR), this compound came in with a koff of 0.0016 s⁻¹. Besides, in data set [4], the viability at 72 h, 25 µg/mL is greater than 93%. Further, the midpoint of inhibition in data set [5], the IC50, lay at 3860 ± 100 nM. Besides, in data set [5] (ratio of IC50 values vs AHA), the “fold more potent than AHA, urease in intact cell” value came to 44 fold.

For the compound `NC(=S)NC(=O)Cc1ccc(F)cc1` [b23], the melting point fell in the range of 165.4 to 166.5 °C. Also, half-maximal inhibition against H. pylori urease (IC50) required 14600 ± 1000 nM. In data set [1], the viability at 72 h, 25 µg/mL worked out at 97.6%. Also, in the data set on H. pylori (pH=4.0, read-out: MIC pH=4.0), the MIC was found to be 8 µM (≈ 1.7 µg/mL). In addition, in the data set on H. pylori (pH=7.0, read-out: MIC pH=7.0), the MIC is greater than 64 µM. Besides, at Jack bean urease [2], the Ki stood at 3530 nM, the Type of inhibition entry is on record as “Reversible” and the “Ki'” value was determined as 9670 nM. At Jack bean urease [3], this compound had a Kd of 569 ± 21.6 nM and a kon of 54300 M⁻¹ s⁻¹. The compound further showed a koff at Jack bean urease [3] (pH 7.4, SPR) of 0.0309 s⁻¹. Also, the viability at 72 h, 25 µg/mL in data set [4] worked out at 96.1%. This compound also showed an IC50 in data set [5] of 93600 ± 5500 nM.
